US20240384268A1, “Oligonucleotides” (Hudson Institute of Medical Research, priority 2021, published 2024)
In the oligonucleotide strings, read from the 5' end, every base follows the letter of its sugar. An asterisk marks phosphorothioate; unmarked linkages are phosphodiester. Other units and linkages are bracketed, terminal groups are in braces. A string of capitals states the bases alone. d = 2'-deoxy (DNA)

Experiments:
TLR3 = biological target: T1, TLR3 (Homo sapiens, UniProt O15455); experiment: HEK-TLR3 NF-κB-luciferase reporter, poly(I:C) stimulation; type: cell-based; design: host or cells: HEK-Blue hTLR3 (HEK293); conditions: for TLR3 2uM: 3-mers DNA PS 45 min, then 500 ng/ml polyI:C overnight, NF-κB-luciferase normalised to polyI:C only (Ligand 1.000, NT 0.000); for inhibition of polyI:C sensing by TLR3 at 500 nM (in words): 500 nM ASOs/ODNs, poly(I:C) 1 μg/ml
T1 sequence (O15455 24-904): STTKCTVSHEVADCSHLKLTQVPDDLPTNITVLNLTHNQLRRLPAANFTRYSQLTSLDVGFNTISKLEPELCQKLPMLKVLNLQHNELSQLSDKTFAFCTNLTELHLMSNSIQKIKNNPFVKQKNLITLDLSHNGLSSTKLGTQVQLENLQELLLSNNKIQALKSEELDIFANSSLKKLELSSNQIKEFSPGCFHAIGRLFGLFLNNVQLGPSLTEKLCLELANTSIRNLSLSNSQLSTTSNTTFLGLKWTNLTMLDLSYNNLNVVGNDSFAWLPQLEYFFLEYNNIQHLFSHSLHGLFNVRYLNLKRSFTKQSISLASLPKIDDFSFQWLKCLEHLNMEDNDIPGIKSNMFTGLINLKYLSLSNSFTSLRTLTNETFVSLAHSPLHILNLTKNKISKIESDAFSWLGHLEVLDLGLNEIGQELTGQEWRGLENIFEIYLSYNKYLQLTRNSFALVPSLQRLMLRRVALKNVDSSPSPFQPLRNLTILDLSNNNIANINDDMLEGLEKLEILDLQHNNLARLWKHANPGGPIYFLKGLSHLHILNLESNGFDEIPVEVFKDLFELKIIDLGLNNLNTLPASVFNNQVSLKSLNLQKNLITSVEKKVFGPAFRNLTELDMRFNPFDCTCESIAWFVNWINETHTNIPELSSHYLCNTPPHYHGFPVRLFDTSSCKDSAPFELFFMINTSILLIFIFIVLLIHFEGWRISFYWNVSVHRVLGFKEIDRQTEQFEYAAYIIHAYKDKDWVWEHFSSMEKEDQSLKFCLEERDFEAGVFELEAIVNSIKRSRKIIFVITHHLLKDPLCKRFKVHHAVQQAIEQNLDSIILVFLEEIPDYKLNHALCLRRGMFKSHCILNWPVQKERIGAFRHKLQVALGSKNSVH

human TLR7 = biological target: T2, human TLR7 (Homo sapiens, UniProt Q9NYK1); experiment: HEK-TLR7 NF-κB-luciferase reporter, R848 stimulation; type: cell-based; conditions: HEK-TLR7; 2 μM 3-mer DNA on a PS backbone; R848
T2 construct: HA; host or cells: 293XL-hTLR7-HA (HEK293)
T2 sequence (Q9NYK1 27-1049): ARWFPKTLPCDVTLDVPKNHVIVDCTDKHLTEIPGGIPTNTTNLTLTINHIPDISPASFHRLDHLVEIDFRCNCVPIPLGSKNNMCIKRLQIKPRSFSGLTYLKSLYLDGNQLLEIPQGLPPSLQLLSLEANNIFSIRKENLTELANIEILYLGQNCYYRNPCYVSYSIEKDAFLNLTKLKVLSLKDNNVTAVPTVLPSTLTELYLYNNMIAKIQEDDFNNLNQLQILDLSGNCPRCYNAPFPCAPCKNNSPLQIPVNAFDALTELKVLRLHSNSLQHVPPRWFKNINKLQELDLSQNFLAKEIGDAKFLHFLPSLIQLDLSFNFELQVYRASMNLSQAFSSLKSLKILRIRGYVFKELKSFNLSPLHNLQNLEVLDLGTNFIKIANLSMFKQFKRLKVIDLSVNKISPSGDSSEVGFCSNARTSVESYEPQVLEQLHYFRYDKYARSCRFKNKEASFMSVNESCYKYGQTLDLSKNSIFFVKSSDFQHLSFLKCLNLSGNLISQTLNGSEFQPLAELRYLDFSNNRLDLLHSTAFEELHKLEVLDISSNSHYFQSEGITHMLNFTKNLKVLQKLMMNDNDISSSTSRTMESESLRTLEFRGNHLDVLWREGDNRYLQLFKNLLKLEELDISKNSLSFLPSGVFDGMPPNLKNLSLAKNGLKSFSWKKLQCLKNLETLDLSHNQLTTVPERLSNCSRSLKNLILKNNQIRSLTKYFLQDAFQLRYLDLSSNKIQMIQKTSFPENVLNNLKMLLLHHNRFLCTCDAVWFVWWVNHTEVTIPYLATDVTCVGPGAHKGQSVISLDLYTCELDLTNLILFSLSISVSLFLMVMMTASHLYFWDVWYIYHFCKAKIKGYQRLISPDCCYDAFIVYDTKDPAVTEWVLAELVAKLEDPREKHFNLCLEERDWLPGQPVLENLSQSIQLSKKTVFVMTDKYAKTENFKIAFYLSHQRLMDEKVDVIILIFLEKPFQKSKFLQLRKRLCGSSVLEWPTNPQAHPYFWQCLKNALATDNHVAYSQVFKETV
Method: In such examples, inhibition of TLR7 activity can be identified by observation of an overall decreased TLR7 response of the cell population, or a lower proportion of cells having TLR7-positive activity as compared to positive control condition in which cells are treated with TLR7 agonist in the absence of the oligonucleotide (or in the presence of an appropriate control inhibitory agent). In one example, 293XLhTLR7 (referred to as HEK-TLR7) cells are transfected with pNF-κB-Luc4 reporter, incubated with an oligonucleotide, and then stimulated with R848. TLR7 activity can be determined by a luciferase assay, which measures activated NF-κB by luminescence. TLR7 activity can also be analysed by measuring cytokine levels, for example by ELISA. […] TLR7 activity may then be assessed by the gene or protein expression of TLR7-responsive genes, such as Tnfα and Oas3.
For cGAS stimulations, cells were treated for indicated duration with ASOs, prior to transfection with ISD70 (human cells) or ISD45 (mouse cells) (the ASOs were not washed off prior to ISD transfection unless otherwise indicated). The cGAS ligands ISD45 (Stetson and Medzhitov, 2006) and ISD70 (also known as VACV-70 (Unterholzner et al., 2010)) (Table 1) were resuspended as follows: 5 1d of sense and 5 μl of antisense strands at 10 μg/μl were added to 90 μl PBS under sterile conditions, heated at 75° C. for 30 min, prior to letting cool down at room temperature and aliquoting (stock at 1 μg/1 l). The ISDs were transfected at a concentration of […] at a ratio of 1 μg:1 μl with Lipofectamine 2000 in Opti-MEM (Thermo Fisher Scientific). HEK-TLR3, HEK-TLR7 and […] were treated with indicated concentration of ASOs for 20-50 min, prior to stimulation with poly(I:C) (Invivogen), R848 (Invivogen), Motolimod (MedChemExpress) and the Class B CpG oligonucleotides ODN 2006 (synthesised by IDT and resuspended in RNase-free TE buffer [Table 1]), respectively. The TLR2/1 agonist PAM3CSK4 (Invivogen), the TLR4 agonist lipopolysaccharide (Invivogen), the Class B CpG oligonucleotides ODN 1826 (synthesised by IDT and resuspended in RNase-free TE buffer), the mouse Sting agonist DMXAA (Cayman) and the human STING agonist (compound #3 from (Raanjulu et al., 2018), referred to as GSK herein—kind gift from Cancer Therapeutics CRC, Australia) were used at indicated concentrations. Aspirin (Sigma—A2093) was resuspended in pure medium to 10 mM, filter sterilised and added to the cells at 2 mM final. All ASOs were synthesised by Integrated DNA Technologies (IDT), and resuspended in RNase-free TE buffer, pH 8.0 (Thermo Fisher Scientific). Cell viability was assessed by adding 1× fresh resazurin solution to the wells (10λ solution made up with 7 mg resazurin [Sigma—R7017] dissolved in 3.5 ml PBS, sterile filtered at […]) for 4 h, prior to reading at with a Fluostar OPTIMA (BMG LABTECH) plate-reader (fluorescence: Excitation 535 nm, Emission 590); wells with medium only and 1× resazurin were used as blanks.
Following transfection, the cells were collected from the 6-wells and aliquoted into 96-wells, just before ASO and overnight TLR stimulation (as above described). Similarly, the LL171 cells expressing and ISRE-Luc reporter were treated overnight.

Row | Substance | TLR3 2uM (TLR3) | also measured
1 | dG*dG*dT [GGT] | 0.959 | 
2 | dG*dC*dT [GCT] | 0.998 | 
3 | dC*dC*dT [CCT] | 0.914 | 
4 | dA*dA*dT [AAT] | 0.877 | 
5 | dT*dA*dG [TAG] | 0.769 | 
6 | dT*dA*dC [TAC] | 0.704 | inhibition of TLR3 sensing by 3-mer DNA PS oligos (TLR3; 2 μM 3-mer DNA PS, 500 ng/ml polyI:C): strongest DNA 3-mer
7 | dT*dT*dG [TTG] | 0.990 | 
8 | T*T*C* A*A*A* T*T*C* A*A*A* T*T*C* A*A*A* T*T*C* A*A*A (dT*dT*dC*dA*dA*dA*dT*dT*dC*dA*dA*dA*dT*dT*dC*dA*dA*dA*dT*dT*dC*dA*dA*dA) [C151, reference compound] |  | inhibition of polyI:C sensing by TLR3 at 500 nM (in words) (TLR3): only partially reduced polyL:C-dependent TLR3 activation
9 | T*G*C* T*T*G* C*A*A* G*C*T* T*G*C* A*A*G* C*A (TGCTTGCAAGCTTGCAAGCA; DNA, all phosphorothioate, methylation of C not given here) [IRS661, reference compound] |  | inhibition of polyI:C sensing by TLR3 at 500 nM (in words) (TLR3): blocked polyL:C sensing
10 | dG*dT*dA [GTA] | 0.818 | 
11 | dG*dT*dG [GTG] | 0.929 | 
12 | dG*dT*dT [GTT] | 1.009 | 
13 | dA*dT*dA [ATA] | 0.827 | 
14 | dC*dT*dT [CTT] | 0.901 | 
15 | dT*dC*dC [TCC] | 0.868 | 
16 | dT*dG*dC [TGC] | 0.795 | 
17 | dC*dT*dA [CTA] | 0.864 | 
18 | dT*dT*dT [TTT] | 1.139 | inhibition of TLR7 by 3-mer DNA PS oligos (human TLR7): two most potent DNA 3-mers inhibiting TLR7
19 | dT*dC*dT [TCT] | 1.230 | inhibition of TLR7 by 3-mer DNA PS oligos (human TLR7): two most potent DNA 3-mers inhibiting TLR7
20 | dC*dT*dC [CTC] | 0.911 | 

Row | Substance | TLR3 2uM (TLR3) | also measured
21 | T*G*C* T*T*G* A*C*A* T*C*C* T*G*G* A*G*G* G*G*T* T*G*T (TGCTTGACATCCTGGAGGGGTTGT; DNA, all phosphorothioate, methylation of C not given here) [IRS957, reference compound] |  | inhibition of polyI:C sensing by TLR3 at 500 nM (in words) (TLR3): blocked polyL:C sensing
22 | dG*dA*dT [GAT] | 0.864 | 
23 | dC*dG*dT [CGT] | 0.755 | 
24 | dA*dC*dT [ACT] | 0.818 | 
25 | dG*dT*dC [GTC] | 0.914 | 
26 | dA*dT*dG [ATG] | 0.849 | 
27 | dT*dT*dC [TTC] | 0.928 | 
28 | dT*dG*dA [TGA] | 0.743 | 
29 | dT*dA*dT [TAT] | 0.877 | 
30 | dC*dA*dT [CAT] | 0.828 | 
31 | dC*dT*dG [CTG] | 0.843 | 
32 | dT*dC*dA [TCA] | 0.792 | 
33 | dT*dT*dA [TTA] | 0.855 | 
34 | dT*dG*dT [TGT] | 0.884 | 
35 | dT*dG*dG [TGG] | 0.773 | 
36 | dT*dC*dG [TCG] | 0.931 | 
37 | dA*dG*dT [AGT] | 0.865 | 
38 | dA*dT*dT [ATT] | 1.012 | 
39 | dA*dT*dC [ATC] | 0.834 | 
40 | dT*dA*dA [TAA] | 0.968 | 
